Test results published in ChEMBL document CHEMBL4725459, “Novel Pyrazoles as Hemoglobin Modulators for Treating Sickle Cell Disease” (ACS Med Chem Lett, 2020).

Legend:
[1] = Binding affinity to purified human sickle cell hemoglobin by SPR assay
[2] = Stabilization of purified human sickle cell hemoglobin at its oxygenated (R) state assessed as reduction in conversion from oxygenated (R, relaxed state) to deoxygenated (T, tense state) under deoxygenating conditions

Row | SMILES | Kd [1] [nM] | IC50 [2] [nM]
1 | C[C@H](Oc1cc2cc(C(N)=O)cc(F)c2nc1N)c1ncc(F)cc1-n1cccn1 | 68 | 3930
2 | C[C@H](Oc1cc2cc(F)ccc2nc1N)c1cc(CCC(=O)O)ccc1-n1cccn1 | 188 | 3600
3 | C[C@H](Oc1cc2cc(F)ccc2nc1N)c1nc(OCCO)ccc1-n1cccn1 | 44 | 3830
4 | C[C@H](Oc1cc2cc(F)cc(F)c2nc1N)c1ncc(F)cc1-n1cccn1 | 45 | 3620
5 | C[C@H](Oc1cc2cc(F)ccc2nc1N)c1cc(OCC(=O)O)ccc1-n1cccn1 | 63 | 3890
6 | CC(=O)c1nc2[nH]ncc2cc1-n1cccn1 | 36 | 3760
